Source: US20260167656A1, “PHOSPHORAMIDATE COMPOUNDS AND USES THEREOF” (ALLORION THERAPEUTICS INC, priority 2022, published 2026)

Assays:
[1] = test system: non-small cell lung cancer cell line H460; assay: H460 proliferation assay in the presence of 3 uM ASP9521 (AKR1C3 specific inhibitor); assay type: cell-based, human; details: H460 cells, CellTiter-Glo, 72 hours, in the presence of 3 uM ASP9521 added 4 hours prior to compounds; read-out: CTG H460: Avg IC50 (nM) [Assay Condition: ASP9521]
Outline: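 AKR1C3 blocked with 3 uM ASP9521 given 4 h ahead of test compounds. H460 cells, plated 24 h earlier, were then treated for 72 h at 37 °C in 5% CO2. CellTiter-Glo luminescence gave viability.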

[2] = test system: non-small cell lung cancer cell line H460; assay: In vitro human cancer cell line cytotoxicity (proliferation) assay in H460, CellTiter-Glo, 72 hours; assay type: cell-based; details: H460 cells, DMSO condition (no AKR1C3 inhibitor), read-out: CTG H460: Avg IC50 (nM) [Assay Condition: DMSO]
Outline: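 IC50s in nM come from CellTiter-Glo viability read after 72 h of compound exposure. Compounds went in from 10 mM DMSO stocks onto H460 cells, which had been plated at 3×10^3 per well and grown 24 h beforehand at 37 °C, 5% CO2.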

SMILES	IC50 [1]	IC50 ([2]; Homo sapiens, NCI-H460, 72 h)	IC50 [2]
O=[N+]([O-])c1cc2oc(COP(=O)(N3CC3)N3CC3)cc2cc1Oc1ccnc(-c2ccccc2)c1 [Example 538]	711 nM	< 10 nM	–
CNC(=O)c1cccc(Oc2cc3cc(C(C)OP(=O)(N4CC4)N4CC4)oc3cc2[N+](=O)[O-])c1 (stereo not drawn) [Example 539]	2730 nM	< 10 nM	–
O=[N+]([O-])c1cc2oc(COP(=O)(N3CC3)N3CC3)cc2cc1Oc1ccc(-c2cccnc2)cc1 [Example 540]	1830 nM	< 10 nM	–
O=[N+]([O-])c1cc2oc(COP(=O)(N3CC3)N3CC3)cc2cc1Oc1cccc(OC(F)(F)F)c1 [Example 542]	963 nM	–	< 10 nM
CC(OP(=O)(N1CC1)N1CC1)c1cc2cc(Oc3cccc(-c4ccccn4)c3)c([N+](=O)[O-])cc2o1 (stereo not drawn) [Example 543]	2230 nM	–	< 10 nM
CC(OP(=O)(N1CC1)N1CC1)c1cc2cc(Oc3cccc(C(=O)N4CCOCC4)c3)c([N+](=O)[O-])cc2o1 (stereo not drawn) [Example 544]	3490 nM	–	10 to 50 nM
O=C(c1cccc(Oc2cc3cc(COP(=O)(N4CC4)N4CC4)oc3cc2[N+](=O)[O-])c1)N1CCC(F)(F)C1 [Example 545]	970 nM	–	< 10 nM
CC(OP(=O)(N1CC1)N1CC1)c1cc2cc(Oc3ccc4c(c3)OC(F)(F)O4)c([N+](=O)[O-])cc2o1 (stereo not drawn) [Example 546]	4690 nM	< 10 nM	–
CC(C)Oc1cccc(Oc2cc3cc(COP(=O)(N4CC4)N4CC4)oc3cc2[N+](=O)[O-])c1 [Example 547]	1260 nM	–	< 10 nM
CC(OP(=O)(N1CC1)N1CC1)c1cc2cc(Oc3cccc(C(=O)N4CCC(F)(F)CC4)c3)c([N+](=O)[O-])cc2o1 (stereo not drawn) [Example 548]	2140 nM	–	< 10 nM
CC(OP(=O)(N1CC1)N1CC1)c1cc2cc(Oc3cccc(C(=O)N4CCC4)c3)c([N+](=O)[O-])cc2o1 (stereo not drawn) [Example 549]	5130 nM	–	10 to 50 nM
C[C@@H](OP(=O)(N1CC1)N1CC1)c1cc2cc(Oc3ccc4c(c3)OC(F)(F)O4)c([N+](=O)[O-])cc2o1 [Example 550]	2510 nM	< 10 nM	–
C[C@H](OP(=O)(N1CC1)N1CC1)c1cc2cc(Oc3ccc4c(c3)OC(F)(F)O4)c([N+](=O)[O-])cc2o1 [Example 551]	2600 nM	< 10 nM	–
C[C@H](OP(=O)(N1CC1)N1CC1)c1cc2cc(Oc3cccc(C(=O)N4CC(F)(F)C4)c3)c([N+](=O)[O-])cc2o1 [Example 552]	5870 nM	–	10 to 50 nM
C[C@@H](OP(=O)(N1CC1)N1CC1)c1cc2cc(Oc3cccc(-c4ccccn4)c3)c([N+](=O)[O-])cc2o1 [Example 553]	2950 nM	–	10 to 50 nM
C[C@H](OP(=O)(N1CC1)N1CC1)c1cc2cc(Oc3cccc(-c4ccccn4)c3)c([N+](=O)[O-])cc2o1 [Example 554]	6070 nM	–	< 10 nM
O=[N+]([O-])c1cc2oc(COP(=O)(N3CC3)N3CC3)cc2cc1Oc1cccc(C2CC2)c1 [Example 555]	1490 nM	–	< 10 nM
O=C(c1cccc(Oc2cc3cc(COP(=O)(N4CC4)N4CC4)oc3cc2[N+](=O)[O-])c1)N1CCOCC1 [Example 556]	1060 nM	–	< 10 nM
C[C@H](OP(=O)(N1CC1)N1CC1)c1cc2cc(Oc3cccc(C(=O)N4CCOCC4)c3)c([N+](=O)[O-])cc2o1 [Example 557]	7310 nM	–	10 to 50 nM
C[C@H](OP(=O)(N1CC1)N1CC1)c1cc2cc(Oc3cccc(C(=O)N4CCC(F)(F)C4)c3)c([N+](=O)[O-])cc2o1 [Example 558]	3960 nM	–	10 to 50 nM
C[C@@H](OP(=O)(N1CC1)N1CC1)c1cc2cc(Oc3cccc(C(=O)N4CCC4)c3)c([N+](=O)[O-])cc2o1 [Example 559]	7000 nM	–	10 to 50 nM
C[C@@H](OP(=O)(N1CC1)N1CC1)c1cc2cc(Oc3cccc(C4CC4)c3)c([N+](=O)[O-])cc2o1 [Example 561]	4230 nM	–	10 to 50 nM
C[C@H](OP(=O)(N1CC1)N1CC1)c1cc2cc(Oc3cccc(C4CC4)c3)c([N+](=O)[O-])cc2o1 [Example 562]	3040 nM	–	< 10 nM
C[C@H](OP(=O)(N1CC1)N1CC1)c1cc2cc(Oc3cccc(C(=O)N4CCC(F)(F)CC4)c3)c([N+](=O)[O-])cc2o1 [Example 563]	2110 nM	–	< 10 nM
C[C@@H](OP(=O)(N1CC1)N1CC1)c1cc2cc(Oc3ccc4c(c3)CN(C)C4=O)c([N+](=O)[O-])cc2o1 [Example 564]	2690 nM	–	10 to 50 nM
C[C@H](OP(=O)(N1CC1)N1CC1)c1cc2cc(Oc3ccc4c(c3)CN(C)C4=O)c([N+](=O)[O-])cc2o1 [Example 565]	5930 nM	–	10 to 50 nM
C[C@@H](OP(=O)(N1CC1)N1CC1)c1cc2cc(Oc3cccc(C(=O)N(C)C)c3)c([N+](=O)[O-])cc2o1 [Example 566]	6380 nM	–	10 to 50 nM
C[C@@H](OP(=O)(N1CC1)N1CC1)c1cc2cc(Oc3cncc(-c4ccccc4)c3)c([N+](=O)[O-])cc2o1 [Example 567]	2110 nM	–	< 10 nM
C[C@H](OP(=O)(N1CC1)N1CC1)c1cc2cc(Oc3cncc(-c4ccccc4)c3)c([N+](=O)[O-])cc2o1 [Example 568]	1920 nM	–	< 10 nM
CN1Cc2ccc(Oc3cc4cc(COP(=O)(N5CC5)N5CC5)oc4cc3[N+](=O)[O-])cc2C1=O [Example 569]	937 nM	–	< 10 nM
